Results as given in ChEMBL document CHEMBL1201862, “PubChem BioAssay data set” (2004).
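Cells were grown in 96-well plates and exposed to each compound for 48 hours at five concentrations; endpoints were interpolated linearly between bracketing concentrations, or set to the highest concentration if not reached. GI50 is the concentration that inhibits growth by half.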 Activity calls are given as the source filed them. Rule as the data show it: active = GI50 up to about 1.1 µM and inactive = higher.

Legend:
Experiment in all cases: NCI anticancer screen, dose series, 48 h
HCC 2998 = test system: HCC 2998
SNB-75 = test system: SNB-75
UACC-62 = test system: UACC-62
SF-295 = test system: SF-295
SK-MEL-2 = test system: SK-MEL-2
SNB-19 = test system: SNB-19
NCI-H460 = test system: NCI-H460
SW-620 = test system: SW-620
BT-549 = test system: BT-549
NCI-H522 = test system: NCI-H522
K562 = test system: K562
ACHN = test system: ACHN
A498 = test system: A498
SF-268 = test system: SF-268
EKVX = test system: EKVX
OVCAR-4 = test system: OVCAR-4
HT-29 = test system: HT-29
786-0 = test system: 786-0
MDA-MB-435 = test system: MDA-MB-435
UACC-257 = test system: UACC-257

SMILES	GI50 (HCC 2998)	GI50 (SNB-75)	GI50 (UACC-62)	GI50 (SF-295)	GI50 (SK-MEL-2)	GI50 (SNB-19)	GI50 (NCI-H460)	GI50 (SW-620)	GI50 (BT-549)	GI50 (NCI-H522)	GI50 (K562)	GI50 (ACHN)	GI50 (A498)	GI50 (SF-268)	GI50 (EKVX)	GI50 (OVCAR-4)	GI50 (HT-29)	GI50 (786-0)	GI50 (MDA-MB-435)	GI50 (UACC-257)
C=CC1(CBr)CCC(C(C)(C)Br)O1 (stereo not given)	16.6 µM (inactive)	5.65 µM (inactive)	10.3 µM (inactive)	12.3 µM (inactive)	12.8 µM (inactive)	15.8 µM (inactive)	13 µM (inactive)	3.56 µM (inactive)	16.7 µM (inactive)	2.51 µM (inactive)	3.71 µM (inactive)	16.4 µM (inactive)	19.1 µM (inactive)	15.7 µM (inactive)	18 µM (inactive)	14.3 µM (inactive)	5.77 µM (inactive)	1.79 µM (inactive)	12.6 µM (inactive)	13.7 µM (inactive)
c1csc(-c2cscc2-c2ccsc2)c1	28.4 µM (inactive)	> 52.1 µM (inactive)	70.3 µM (inactive)	> 66.8 µM (inactive)	52.2 µM (inactive)	> 57.5 µM (inactive)	62.2 µM (inactive)	62.2 µM (inactive)	> 100 µM (inactive)	22.2 µM (inactive)	31.6 µM (inactive)	> 83.9 µM (inactive)	> 96.8 µM (inactive)	75 µM (inactive)	41.2 µM (inactive)	44.5 µM (inactive)	> 84.9 µM (inactive)	> 63.1 µM (inactive)	25.5 µM (inactive)	> 94.4 µM (inactive)
O=C(/C=C1\N=C(c2ccccc2)N(c2ccc3c(c2)Sc2cc(N4C(=O)/C(=C/C(=O)/C=C/c5ccccc5)N=C4c4ccccc4)ccc2N3)C1=O)/C=C/c1ccccc1	> 100 µM (inactive)	17.3 µM (inactive)	18.2 µM (inactive)	23.4 µM (inactive)	18.4 µM (inactive)	29.7 µM (inactive)	58.7 µM (inactive)	67.6 µM (inactive)	23.5 µM (inactive)	20.9 µM (inactive)	30.8 µM (inactive)	> 100 µM (inactive)	27.9 µM (inactive)	69.5 µM (inactive)	85.7 µM (inactive)	20.8 µM (inactive)	> 100 µM (inactive)	42.2 µM (inactive)	22 µM (inactive)	27.4 µM (inactive)
O=C1C(Cl)=C(NCCO)C(=O)c2c(O)ccc(O)c21	3.1 µM (inactive)	4.38 µM (inactive)	1.7 µM (inactive)	1.95 µM (inactive)	3.02 µM (inactive)	5.33 µM (inactive)	1.85 µM (inactive)	2.37 µM (inactive)	4.26 µM (inactive)	> 10 µM (inactive)	2.59 µM (inactive)	5.01 µM (inactive)	1.36 µM (inactive)	3.97 µM (inactive)	6.37 µM (inactive)	0.6 µM (active)	2.48 µM (inactive)	5.53 µM (inactive)	2.17 µM (inactive)	1.33 µM (inactive)
C[N+](C)(C)[BH-](Br)C(O)O (stereo not given)	> 100 µM (inactive)	40.6 µM (inactive)	> 100 µM (inactive)	> 100 µM (inactive)	> 100 µM (inactive)	> 100 µM (inactive)	> 100 µM (inactive)	> 100 µM (inactive)	> 100 µM (inactive)	> 100 µM (inactive)	> 100 µM (inactive)	> 100 µM (inactive)	> 100 µM (inactive)	> 100 µM (inactive)	> 100 µM (inactive)	> 100 µM (inactive)	> 100 µM (inactive)	> 100 µM (inactive)	> 100 µM (inactive)	> 100 µM (inactive)
C=C(CN(C)C)C(=O)c1ccccc1	18 µM (inactive)	17 µM (inactive)	14.8 µM (inactive)	31.4 µM (inactive)	15.2 µM (inactive)	30.9 µM (inactive)	18.4 µM (inactive)	1.69 µM (inactive)	11.2 µM (inactive)	1.02 µM (active)	2.07 µM (inactive)	2.7 µM (inactive)	20.7 µM (inactive)	24.5 µM (inactive)	21.8 µM (inactive)	11.4 µM (inactive)	10.2 µM (inactive)	3.3 µM (inactive)	14.1 µM (inactive)	11.5 µM (inactive)
CCOC(=O)Nc1nc2cc(Cn3cccc3)ccc2[nH]1	2.47 µM (inactive)	0.356 µM (active)	0.828 µM (active)	0.807 µM (active)	2.01 µM (inactive)	1.83 µM (inactive)	0.802 µM (active)	0.564 µM (active)	> 20.2 µM (inactive)	0.533 µM (active)	0.359 µM (active)	5.78 µM (inactive)	1.7 µM (inactive)	8.73 µM (inactive)	27.7 µM (inactive)	16.2 µM (inactive)	0.65 µM (active)	1.09 µM (active)	0.123 µM (active)	3.82 µM (inactive)
COc1cc(S(=O)(=O)Nc2nc(-c3ccc(/N=C/c4cccs4)cc3)cs2)ccc1Cl	> 100 µM (inactive)	33.8 µM (inactive)	19.8 µM (inactive)	> 100 µM (inactive)	39.5 µM (inactive)	> 100 µM (inactive)	> 100 µM (inactive)	35.5 µM (inactive)	37 µM (inactive)	28.4 µM (inactive)	33.5 µM (inactive)	> 100 µM (inactive)	> 100 µM (inactive)	56.6 µM (inactive)	> 100 µM (inactive)	38.9 µM (inactive)	> 100 µM (inactive)	> 100 µM (inactive)	> 100 µM (inactive)	> 100 µM (inactive)
COc1ccc(Nc2nc3cc(C(F)(F)F)ccc3nc2C(=O)O)cc1	14.1 µM (inactive)	17.6 µM (inactive)	13.6 µM (inactive)	13 µM (inactive)	14.5 µM (inactive)	16 µM (inactive)	23.9 µM (inactive)	21.6 µM (inactive)	14.4 µM (inactive)	12.4 µM (inactive)	15.2 µM (inactive)	28.3 µM (inactive)	15.1 µM (inactive)	17.6 µM (inactive)	22.9 µM (inactive)	27.3 µM (inactive)	30.3 µM (inactive)	17.5 µM (inactive)	22.5 µM (inactive)	19.1 µM (inactive)
Cc1ccc2c3ccc4c(c3n(C)c2c1)C(=O)C=CC4=O	> 10 µM (inactive)	> 10 µM (inactive)	> 8.22 µM (inactive)	> 10 µM (inactive)	9.95 µM (inactive)	> 10 µM (inactive)	> 10 µM (inactive)	1.74 µM (inactive)	3.32 µM (inactive)	2.95 µM (inactive)	1.03 µM (active)	3.51 µM (inactive)	> 10 µM (inactive)	> 10 µM (inactive)	> 10 µM (inactive)	> 5.12 µM (inactive)	> 10 µM (inactive)	2.33 µM (inactive)	5.86 µM (inactive)	6.67 µM (inactive)
Cc1cnc2[nH]c(-c3cccc(Cl)c3)cc(=O)c2c1	0.101 µM (active)	0.0378 µM (active)	0.0224 µM (active)	0.0169 µM (active)	0.0889 µM (active)	0.0769 µM (active)	0.0378 µM (active)	0.0119 µM (active)	2.54 µM (inactive)	0.0294 µM (active)	< 0.0151 µM (active)	0.507 µM (active)	0.0556 µM (active)	0.0796 µM (active)	> 50.1 µM (inactive)	> 100 µM (inactive)	0.0392 µM (active)	0.0547 µM (active)	< 0.01 µM (active)	1.05 µM (active)
OCC1OC(n2cnc3c(SCc4ccccc4)ncnc32)C(O)C1O (stereo not given)	8.24 µM (inactive)	> 100 µM (inactive)	98.9 µM (inactive)	> 74.1 µM (inactive)	96.8 µM (inactive)	> 100 µM (inactive)	> 44.7 µM (inactive)	21.6 µM (inactive)	16.6 µM (inactive)	17.5 µM (inactive)	3.15 µM (inactive)	4.24 µM (inactive)	2.98 µM (inactive)	21.2 µM (inactive)	> 68.5 µM (inactive)	11.8 µM (inactive)	5.52 µM (inactive)	27.5 µM (inactive)	> 100 µM (inactive)	> 100 µM (inactive)
COc1cc(C2c3cc4c(cc3CC3COC(=O)N32)OCO4)cc(OC)c1OC (stereo not given)	2.93 µM (inactive)	14.8 µM (inactive)	2.61 µM (inactive)	0.729 µM (active)	6.73 µM (inactive)	4.26 µM (inactive)	4 µM (inactive)	2.13 µM (inactive)	6.27 µM (inactive)	1.57 µM (inactive)	1.57 µM (inactive)	12.8 µM (inactive)	6.31 µM (inactive)	8.04 µM (inactive)	4.76 µM (inactive)	14.1 µM (inactive)	2.12 µM (inactive)	3.09 µM (inactive)	0.404 µM (active)	26.1 µM (inactive)
NC(=O)NN=C1Cc2ccccc2C1	> 100 µM (inactive)	> 100 µM (inactive)	> 100 µM (inactive)	> 100 µM (inactive)	> 100 µM (inactive)	> 100 µM (inactive)	> 100 µM (inactive)	> 100 µM (inactive)	> 100 µM (inactive)	> 100 µM (inactive)	> 100 µM (inactive)	> 100 µM (inactive)	> 100 µM (inactive)	> 100 µM (inactive)	> 100 µM (inactive)	> 100 µM (inactive)	> 100 µM (inactive)	> 100 µM (inactive)	> 100 µM (inactive)	> 100 µM (inactive)
